Measurements: PubChem BioAssay (NCI)
Several values for one entry are separate records, joined by “and”; a condition that tells them apart may be missing. Equal entries are not always repeated.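 All cell lines were grown in 96-well plates and treated with compound for 48 hours. At the GI50, growth is halved. TGI is the concentration that stops growth completely.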

Columns and labels:
Experiment in all cases: NCI anticancer screen, dose series, 48 h
T-47D breast = system: T-47D breast
K-562 leukemia = system: K-562 leukemia
SN12C renal = system: SN12C renal
RPMI-8226 leukemia = system: RPMI-8226 leukemia
HOP-92 NSCLC = system: HOP-92 NSCLC
IGROV1 ovarian = system: IGROV1 ovarian
SK-OV-3 ovarian = system: SK-OV-3 ovarian
LOX IMVI melanoma = system: LOX IMVI melanoma
OVCAR-8 ovarian = system: OVCAR-8 ovarian
SNB-19 CNS = system: SNB-19 CNS

| SMILES | GI50 (T-47D breast) | TGI (T-47D breast) | GI50 (K-562 leukemia) | TGI (K-562 leukemia) | GI50 (SN12C renal) | TGI (SN12C renal) | GI50 (RPMI-8226 leukemia) | TGI (RPMI-8226 leukemia) | GI50 (HOP-92 NSCLC) | TGI (HOP-92 NSCLC) | GI50 (IGROV1 ovarian) | TGI (IGROV1 ovarian) | GI50 (SK-OV-3 ovarian) [µM] | TGI (SK-OV-3 ovarian) | GI50 (LOX IMVI melanoma) | TGI (LOX IMVI melanoma) | GI50 (OVCAR-8 ovarian) | TGI (OVCAR-8 ovarian) | GI50 (SNB-19 CNS) [µM] | TGI (SNB-19 CNS) |
| --- | --- | --- | --- | --- | --- | --- | --- | --- | --- | --- | --- | --- | --- | --- | --- | --- | --- | --- | --- | --- |
| O=S(=O)(Nc1ccccc1)c1ccc(C2CC3(Cl)C(Cl)=C(Cl)C2(Cl)C3(Cl)Cl)cc1 (configuration not stated) | 2.54 µM | 6.82 µM | 2.51 µM | 9.84 µM | 1.71 µM | 3.3 µM | 2.53 µM | 7.28 µM | 1.84 µM | 5.08 µM | 2.24 µM | 5.13 µM | 3.45 | 10.1 µM | 1.84 µM | 3.47 µM | 3.52 µM | 10.9 µM | 3.74 | 13.6 µM |
| C=C(C)c1nc(Oc2ccccc2)nc(Oc2ccccc2)n1 | – | 21.6 µM | – | 5.49 µM | – | 16.4 µM | – | 12 µM | – | 10.8 µM | – | 22.4 µM | – | 30.3 µM | – | 4.51 µM | – | 24.4 µM | – | 18.5 µM |
| CNS(=O)(=O)Nc1nccc(Cc2c(C)c3ccc(Oc4ncccn4)cc3oc2=O)c1F | 16.1 µM and > 10 µM | > 100 µM | 2.21 µM and 1.62 µM | > 100 µM | 13.1 µM and > 8.08 µM | > 100 µM | 12.3 µM and > 9.21 µM | > 100 µM | < 0.0152 µM and 0.0613 µM | 0.406 µM and 1.93 µM | 0.938 µM and 0.0955 µM | > 100 µM | – | > 100 µM | 0.356 µM and 0.977 µM | > 100 µM | 33.8 µM and > 10 µM | > 100 µM | > 48.4 | > 100 µM |
| N=C(N)SCc1ccc(Cl)c2ccccc12 (tested in a mixture with another compound) | – | 18.3 µM and 21.7 µM | – | 19.4 µM and 10.1 µM | – | 24.3 µM and 24.9 µM | – | 18.5 µM and 7.98 µM | – | 32.2 µM and 24.9 µM | – | 29 µM and 30.8 µM | – | 25.9 µM and 28.9 µM | – | 33.1 µM and 36.6 µM | – | 50.1 µM and > 77.8 µM | – | 28.4 µM and 31.6 µM |
| O=C1NC(=O)C2C3C=CC(C12)C1C2C(=O)NC(=O)C2C31 (configuration not stated) | 480 µM | > 1000 µM | 137 µM | 250 µM and > 1000 µM | 419 µM | 250 µM and > 1000 µM | > 76.6 µM and 577 µM | 203 µM and > 1000 µM | > 1000 µM | 230 µM and > 1000 µM | > 770 µM | 248 µM and > 1000 µM | > 767 | 108 µM and > 1000 µM | – | > 85.7 µM and 250 µM and > 1000 µM | 880 µM | 206 µM and > 1000 µM | 327 | 238 µM and > 904 µM |
| Nc1cc(C(F)(F)F)c(-c2nc(N3CCOCC3)nc(N3CCOCC3)n2)cn1 | 0.0328 µM | 0.347 µM | 3.65 µM | > 100 µM | 0.416 µM | > 48.1 µM | 0.709 µM | > 75.9 µM | 0.139 µM | 0.765 µM | 0.0916 µM | 0.528 µM | 0.131 | 0.598 µM | – | > 35.1 µM | 0.89 µM | > 66.1 µM | 2.11 | 44.5 µM |
| C=CCN(CC=C)Cc1c[nH]c2ccccc12 | > 100 µM | > 100 µM | 50.2 µM | > 100 µM | 16 µM | 41.8 µM | 17.8 µM | > 100 µM | > 100 µM | > 100 µM | 16 µM | 42.6 µM | > 100 | > 100 µM | 27.4 µM | > 100 µM | 11.9 µM | 69 µM | > 100 | > 100 µM |
| O=C1NC(c2ccccc2Cl)Nc2ccccc21 (configuration not stated) | – | > 100 µM | – | > 30.4 µM | – | > 100 µM | – | 62.8 µM | – | > 100 µM | – | > 100 µM | – | > 100 µM | – | > 100 µM | – | > 100 µM | – | > 74 µM |
| O=C1c2ccccc2-c2c1c1c(O)cccc1n2Cc1ccccc1 | 7.8 µM | 90.2 µM | 22.8 µM | > 100 µM | 14.1 µM | > 100 µM | 30 µM | > 100 µM | 4.22 µM | 19.8 µM | – | – | 14.5 | 41.7 µM | 10.1 µM | > 100 µM | 28.6 µM | > 100 µM | 14.4 | 82.5 µM |
| COc1ccc(-n2c(=O)c3ccccc3n(Cc3ccc(C(=O)NO)cc3)c2=O)cc1 | 1.9 µM | 6.63 µM | 3.11 µM | > 100 µM | – | – | 2.42 µM | 12.6 µM | 2.1 µM | 5.33 µM | – | – | 2.45 | 6.69 µM | 1.76 µM | 3.24 µM | 1.8 µM | 5.88 µM | 2.96 | 18.5 µM |
| C/C(=C\c1csc(C)n1)[C@@H]1C[C@@H]2O[C@]2(C)CCC[C@H](C)[C@H](O)[C@@H](C)C(=O)C(C)(C)[C@@H](O)CC(=O)N1 | 0.000189 µM | 0.000469 µM | 0.000106 µM | 0.00033 µM | 0.000214 µM | 0.000418 µM | < 1e-05 µM | < 1e-05 µM | < 1e-05 µM | < 1e-05 µM | – | – | 0.00477 | 0.0595 µM | 0.00012 µM | 0.000226 µM | 0.000112 µM | 0.000184 µM | 0.000347 | 0.000508 µM |
| CC(=O)O[C@H]([C@H](OC(C)=O)[C@H](C)OC(C)=O)[C@@H](/C=C/[C@H]1CC=CC(=O)O1)OC(C)=O | 38.3 µM | > 100 µM | > 100 µM | > 100 µM | 83.3 µM | > 100 µM | 26.3 µM | 89.8 µM | 23.5 µM | 62.4 µM | – | – | > 100 | > 100 µM | 55.1 µM | > 100 µM | 51.2 µM | > 100 µM | 80.5 | > 100 µM |
| COc1ccc(-c2c(Nc3ccccn3)nc3c(C4=CCCCC4)c(-c4ccccc4)[nH]n3c2=O)cc1 | 2.22 µM | 17.3 µM | – | – | 2.7 µM | > 100 µM | 1.43 µM | 5.66 µM | 1.45 µM | 9.26 µM | 3.5 µM | 51.4 µM | 3.44 | 17.5 µM | 1.8 µM | > 100 µM | 3.47 µM | > 100 µM | 3.12 | 17.2 µM |
| COc1cc2c(cc1C)NC(=O)/C2=C\c1ccc(Oc2ccccc2)cc1 | 15.1 µM | 48.4 µM | – | – | 14.4 µM | 27.5 µM | 12.1 µM | 31.6 µM | 2.03 µM | 9.19 µM | 15.7 µM | 36.9 µM | 17 | 31.4 µM | 14 µM | 27 µM | 22.8 µM | 64.6 µM | 17.8 | 32.9 µM |
| O=C1c2ccccc2N1C(=O)c1ccccc1[N+](=O)[O-] | – | > 100 µM | – | > 100 µM | – | – | – | > 100 µM | – | > 100 µM | – | > 100 µM | – | > 100 µM | – | 81.6 µM | – | > 100 µM | – | > 100 µM |
